Source: patent EP2298282B1, “COMBINATION OF DRUGS HAVING DIFFERENT PHYSICAL PROPERTIES INTO SINGLE DOSAGE FORM” (Cocokara fine Healthcare Inc., priority 2008, dated 2009)
Blank lines part the entries; values can stand above or below the compound they belong to.

Assays:
Assay type in all cases: physicochemical
[1] = Dispersion in aqueous 0.4% Carbopol solution (electrode gel solution for iontophoresis)
Procedure: Carbopol (Carbopol 940, manufactured by B. F. Goodrich, 0.2 g) was dissolved in 0.3% citrate buffer (pH 6). The pH level of this solution was adjusted at 6 with sodium hydroxide to bring the total amount of the solution to 50 g, and a solution of 0.4% Carbopol (hereafter referred to as an "aqueous 0.4% Carbopol solution") was obtained. The CoQ10-surfactant composite (CoQ10-HydroS, 5 g) obtained in Production Example 14 was dispersed in 50 g of an aqueous 0.4% Carbopol solution with the use of an agitation blade, and a clear homogeneous solution was obtained (hereafter referred to as an "aqueous 0.4% Carbopol solution containing CoQ10-HydroS").
In this case, CoQ10 remained suspended in the solution. […] Thus, CoQ10, which is a low-solubility, nutritional factor, was prepared in the form of a CoQ10-surfactant composite (CoQ10-HydroS), and an aqueous solution for an electrode gel containing a nutritional factor for iontophoresis homogeneously dispersed/dissolved in water was obtained.

[2] = Long-term stability (2-year) at room temperature, browning; settings: stored at room temperature for 2 years
Text: Long-term stability (2-year) was inspected at room temerature using S/O VC·PMg obtained in Production Example 5. A non-S/O VC·PMg solution was used as a positive control, and a dispersion medium used for S/O preparation was used as a negative control.
The photograph shown in Fig. 6 was stored at room temperature for 2 years.

[3] = Dispersion in olive oil together with vitamin E (VE)
Text: The VC·PMg-surfactant composite (VC·PMg-LipoS, 5g) obtained in Production Example 12 and 0.5 g of vitamin E (VE) were dispersed in 1 kg of olive oil with the use of an agitation blade, and a clear homogeneous solution was obtained. This homogeneous solution was subjected to plastic filling with the use of a rotary soft capsule filling machine in constant amounts of 0.4 g, and soft capsules containing VC·PMg and VE with high content uniformity were obtained. Soft capsules could be produced in a twist-off form as well as in a general oval form. Similarly, constant amounts of 0.1 g were subjected to plastic filling with the use of a seamless soft capsule filling machine to obtain soft capsules containing VC·PMg and VE with high content uniformity. […] In this case, VC·PMg remained suspended in the solution. […] The formed soft capsules were packaged in easy-peel blister packs composed of a plastic film and an aluminum film. Thus, products that allow soft capsules with a low degree of hardness to be easily removed and are clean and easy to carry were obtained. Soft capsules were also packaged in press-through blister packs.

appearance of the dispersion ([1]; dispersed in 50 g of aqueous 0.4% Carbopol solution (pH 6)): a clear solution was not obtained | appearance when allowed to stand ([1]; in 50 g of aqueous 0.4% Carbopol solution containing 4.5 g of SLS, allowed to stand): a precipitate was observed
SMILES: COC1=C(OC)C(=O)C(C/C=C(\C)CC/C=C(\C)CC/C=C(\C)CC/C=C(\C)CC/C=C(\C)CC/C=C(\C)CC/C=C(\C)CC/C=C(\C)CC/C=C(\C)CCC=C(C)C)=C(C)C1=O [CoQ10, ubiquinone]

browning [2]: browned with the elapse of time
SMILES: O=C1O[C@H]([C@@H](O)CO)C([O-])=C1OP(=O)([O-])[O-].O=C1O[C@H]([C@@H](O)CO)C([O-])=C1OP(=O)([O-])[O-].[Mg+2].[Mg+2].[Mg+2] [VC·PMg solution, magnesium ascorbyl phosphate]

appearance of the dispersion ([3]; dispersed with 0.5 g VE in 1 kg of olive oil): a clear solution was not obtained | appearance when allowed to stand ([3]; with 0.5 g VE in 1 kg of olive oil containing 4.5 g ER-290, allowed to stand): a precipitate was observed
SMILES: O=C1O[C@H]([C@@H](O)CO)C([O-])=C1OP(=O)([O-])[O-].O=C1O[C@H]([C@@H](O)CO)C([O-])=C1OP(=O)([O-])[O-].[Mg+2].[Mg+2].[Mg+2] [VC·PMg, magnesium ascorbyl phosphate]
